Results as given in patent publication US8435949B2, “Pheromones and the luteinizing hormone for inducing proliferation of neural stem cells and neurogenesis” (Stem Cell Therapeutics Corp., priority 2004, dated 2013).
“And” between values parts separate entries of the source, which are not always exact repeats. Equal values may be shown once.

B1: prolactin: additional agent given in combination with LH or hCG (protein, UniProt P01236 29-227, looked up)
Prolactin: LPICPGGAARCQVTLRDLFDRAVVLSHYIHNLSSEMFSEFDKRYTHGRGFITKAINSCHTSSLATPEDKEQAQQMNQKDFLSLIVSILRSWNEPLYHLVTEVRGMQEAPEAILSKAVEIEEQTKRLLEGMELIVSQVHPETKENEIYPVWSGLPSLQMADEESRLSAYYNLLHCLRRDSHKIDNYLKLLKCRIIHNNNC

How the values were obtained:
neural stem cells = test: Neural stem cell culture: secondary sphere formation from dissociated primary spheres (self-renewal); format: cell-based, mice; settings: for number of secondary spheres: EGF or EGF plus LH (30 nM), limited density, Exp. #1-#3
Description: Generation and differentiation of spheres from embryonic and adult forebrain were performed as described previously with minor modifications (Reynolds and Weiss, 1992; Reynolds et al., 1992). Briefly, striato-pallidum complexes were removed from mouse embryos at E14 and collected into PBS containing 0.6% glucose, penicillin (50 U/ml), and streptomycin (50 U/ml; both from Life Technologies, Gaithersburg, Md.) and then transferred into the standard culture medium composed of DMEM-F-12 (1:1), glucose (0.6%), glutamine (2 mM), sodium bicarbonate (3 mM), HEPES buffer (5 mM), insulin (25 μg/ml), transferrin (100 μg/ml), progesterone ([…]), putrescine (60 μM), and selenium chloride (30 nM) (all from Sigma, St. Louis, Mo., except glutamine from Life Technologies) For adult neural stem cell cultures, medial and lateral portions of the lateral ventricle subependyma from the adult brain were dissected from both hemispheres, pooled together, subsequently cut into 1 mm^2 fragments, and transferred into the standard culture medium containing 1.33 mg/ml trypsin, 0:67 mg/ml hyaluronidase, and 0.2 mg/ml kynurenic acid (all from Sigma). After 30 min at 37° C., the tissue was transferred to the standard culture medium containing 0.7 mg/ml trypsin inhibitor (Roche Diagnostics, Laval, Quebec, Canada). Tissue pieces were mechanically dissociated with micropipettes. Cells were seeded at various densities into the standard culture medium, which also contained EGF (20 ng/ml human recombinant; Peprotech, Rocky Hill, N.J.). Cells were cultured for 7 days in vitro (DIV) and formed floating cell clusters (spheres). All the mice for culture experiments were killed by cervical dislocation.

[1] = tested on: neural stem cells in the SVZ; test: Infusion into the lateral ventricle by osmotic pump; BrdU positive (proliferating) cells counted in the SVZ; format: in vivo, mice; settings: infusion of combination of LH and prolactin or hCG and prolactin vs LH or hCG; Example 5
Description: To examine the number of progenitor cells in the SVZ after treatment, bromodeoxyuridine (BrdU) injections were used to label these cells. Animals received BrdU injections (120 mg/kg, i.p., dissolved in 0.007% NaOH in phosphate buffer) every 2 hours for a 10 hour period.
The sections were post-fixed with acetone for 30 seconds at room temperature and washed with PBS. For BrdU staining, the tissue was treated with 1M HCl for 22 minutes at 60° C. to denature cellular DNA. Sections were then incubated for 24 hours at room temperature in primary antibody (rat anti-BrdU, 1:50) diluted in 0.3% PBS-T containing 10% NGS, washed with PBS, and then incubated with goat-anti-rat secondary antibodies conjugated to biotin (1:200) for 1 hour at room temperature. After rinsing with ddH2O, sections were mounted with Fluorosave, because staining was visualized with CY3-Streptavodin, and viewed with a Zeiss Axiophot fluorescence microscope.
A one-in-ten series of coronal sections (14 μm) from the rostral tip of the lateral ventricle to caudal most aspect of the ventricles (total 10 sections) were collected. BrdU-positive cells were then counted in the defining ependymal-subependymal layer.
Sixteen 8-week-old CD-1 mice (Charles-River, Laval, Quebec, Canada) were anesthetized with sodium pentobarbital (120 mg/kg, i.p.) and implanted with osmotic pumps (Alzet 1007D; Alza, Palo Alto, Calif.). […]

Molecule | number of secondary spheres (neural stem cells; neural stem cells isolated from female mice) | number of secondary spheres (neural stem cells; neural stem cells isolated from male mice) | self-renewal (the number of secondary spheres from primary spheres) (neural stem cells; prolactin added with LH or hCG in neural stem cell cultures, Example 5) | proliferation in the SVZ, prolactin added to LH or hCG [1]
EGF: EGF, 20 ng/ml human recombinant; Peprotech; comparator culture condition | 172.3 and 157.6 and 197.9 | 144.4 and 225.1 and 168.2 |  | 
B1 |  |  | enhanced | further enhances the effects of LH or hCG
